assay: gradient 5% acetonitrile 3 min, to 50% in 2 min, to 85% in 15 min, held 3 min, 100 µL/min; conditions: column: Zorbax Extend-C18 2.1 x 50 mm; eluents: water / acetonitrile, 0.1% formic acid
Summary of the method: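 Retention time was recorded from adduct peaks, which were picked computationally and each inspected manually. Pure standards ran in mixtures of ~100 molecules on HPLC coupled to a quadrupole time-of-flight mass spectrometer, in positive and negative ionization mode, through a Zorbax Extend-C18 column (2.1 × 50 mm, 1.8 μm) at 100 μL/min. Eluents were water and acetonitrile, each with 0.1% formic acid.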

With `CCC(C)NC(=O)Cn1c(=O)c2cnc(-c3ccccc3)nc2n(C)c1=O` (stereo not drawn) as the molecule, how does the RP-LC retention time read?
The RP-LC retention time was 854 s.

Which RP-LC retention time does the source give for `CCn1ccc(C(=O)N2CCCC2c2cccc(F)c2)n1` (stereo not drawn) here?
The RP-LC retention time was 840 s.

For `CCC(C)NC(=O)CCC(=O)N1CCc2c(c(C(=O)N3CCCCC3)nn2C)C1` (stereo not drawn), which RP-LC retention time is on record?
Its RP-LC retention time is 645 s.

With `Cc1ccnc(NC(=O)C2CCCN(S(=O)(=O)c3cc(-c4noc(C5CCC5)n4)cs3)C2)c1` (stereo not drawn) as the molecule, how does the RP-LC retention time read?
The RP-LC retention time was 891 s.

For `OCC1CN(c2ccncn2)CC12CCN(Cc1c[nH]c3ccccc13)CC2` (stereo not drawn), which RP-LC retention time is on record?
The RP-LC retention time was 579 s.

Which RP-LC retention time does the source give for `O=C(Cc1ccccc1)Nc1cccc(C(=O)Nc2ccccc2C(=O)O)c1` here?
Its RP-LC retention time is 830 s.

Which RP-LC retention time does the source give for `O=C1CC(NC(=O)C2(c3ccccc3)CCOCC2)CN1C1CC1` (stereo not drawn) here?
The RP-LC retention time was 621 s.

Which RP-LC retention time does the source give for `CCc1nccn1Cc1nc(-c2ccc(F)c(Cl)c2)no1` here?
Its RP-LC retention time is 669 s.

For `CCCn1cc(S(=O)(=O)Nc2ccc(Cl)cc2)c2cccnc21`, which RP-LC retention time is on record?
Its RP-LC retention time is 942 s.

Which RP-LC retention time does the source give for `CCc1noc(NC(C)=O)c1-c1ccc(OC)c(S(=O)(=O)NC2CC2)c1` here?
The RP-LC retention time was 679 s.

With `Cc1sc2ccn(CC(C)C)c(=O)c2c1C(=O)N1CCN(C2CCCCC2)CC1` as the molecule, how does the RP-LC retention time read?
Its RP-LC retention time is 642 s.

Which RP-LC retention time does the source give for `O=C1NC2(CCN(C(=O)NCc3ccccc3)CC2)Nc2c(Cl)cccc21` here?
Its RP-LC retention time is 724 s.

For `CCCn1c(=O)sc2cc(S(=O)(=O)N3CCC(C(=O)Nc4ccc(CC)cc4)CC3)ccc21`, which RP-LC retention time is on record?
Its RP-LC retention time is 929 s.

For `COc1ccc(-c2cn3ccn(-c4cccc(Cl)c4)c(=O)c3n2)cc1`, which RP-LC retention time is on record?
Its RP-LC retention time is 837 s.

For `O=C(Nc1nnc(C(F)(F)F)s1)C1CCN(C(=O)c2ccc(F)cc2)CC1`, which RP-LC retention time is on record?
The RP-LC retention time was 815 s.

For `CCN1C(=O)COc2cc(-c3noc(C(=O)NCC4CCCO4)n3)ccc21` (stereo not drawn), which RP-LC retention time is on record?
Its RP-LC retention time is 783 s.

With `COC(=O)c1cccc(C(=O)NC2CCN(C(=O)c3cc(-c4cccs4)[nH]n3)CC2)c1` as the molecule, how does the RP-LC retention time read?
Its RP-LC retention time is 733 s.

For `O=C(NCCOc1cccc(C(F)(F)F)c1)c1ccc([N+](=O)[O-])cc1`, which RP-LC retention time is on record?
The RP-LC retention time was 913 s.

With `COc1ccc(N2C=C(C(=O)N3CCOCC3)S(=O)(=O)c3ccccc32)cc1OC` as the molecule, how does the RP-LC retention time read?
The RP-LC retention time was 695 s.

With `COCCCn1c(=O)c2ccccc2n(Cc2nc(-c3ccc(Br)cc3)no2)c1=O` as the molecule, how does the RP-LC retention time read?
The RP-LC retention time was 1120 s.

Which RP-LC retention time does the source give for `COc1cc(C(C)=O)ccc1OC(=O)c1cc2c(C)nn(-c3ccccc3)c2s1` here?
The RP-LC retention time was 1190 s.

Which RP-LC retention time does the source give for `CCn1c(C)nc2c1CN(CC(=O)NCCCN1CCCc3ccccc31)CC2` here?
The RP-LC retention time was 594 s.

Which RP-LC retention time does the source give for `CCOc1ccc(-c2nnc(SCC(=O)Nc3nnc(C)s3)o2)cc1` here?
Its RP-LC retention time is 776 s.

Which RP-LC retention time does the source give for `CCc1nc2cc(-c3noc(COc4cccc(C)c4)n3)ccc2o1` here?
The RP-LC retention time was 1280 s.

With `CN1CCC(NC(=O)C2CCN(c3nc4ccc(-c5ccsc5)nc4s3)CC2)CC1` as the molecule, how does the RP-LC retention time read?
The RP-LC retention time was 640 s.

For `O=C(COc1ccc(F)cc1)N1CCC2(CC1)NC(=O)N(Cc1ccc(Cl)cc1)C2=O`, which RP-LC retention time is on record?
Its RP-LC retention time is 810 s.

For `CCOCCOC(=O)c1ccc(NC(=O)C(C)(C)C)cc1`, which RP-LC retention time is on record?
The RP-LC retention time was 815 s.

Which RP-LC retention time does the source give for `NC(=O)Cn1c(CNC(=O)c2ccccc2)nc2ccccc21` here?
The RP-LC retention time was 573 s.

With `CC(C)(C)c1noc(-c2ccnc(-n3cnc(C(=O)NC4CCCCC4)c3)c2)n1` as the molecule, how does the RP-LC retention time read?
Its RP-LC retention time is 1100 s.

For `CCc1nnc2cc(N3CCN(C(=O)c4ccc(Cl)cc4)CC3)cnn12`, which RP-LC retention time is on record?
Its RP-LC retention time is 561 s.

With `COc1ccc2cccc(NC(=O)c3csc(C)n3)c2n1` as the molecule, how does the RP-LC retention time read?
The RP-LC retention time was 1120 s.

With `CCCCSc1cc(C)nc(N)n1` as the molecule, how does the RP-LC retention time read?
Its RP-LC retention time is 698 s.

With `Cc1cc2[nH]c(C(=O)Nc3ccc(F)cc3F)c(CN3CCOCC3)c2s1` as the molecule, how does the RP-LC retention time read?
Its RP-LC retention time is 710 s.

For `Cc1sc(-c2ccn[nH]2)cc1NC(=O)CCc1ccccc1`, which RP-LC retention time is on record?
The RP-LC retention time was 966 s.

Which RP-LC retention time does the source give for `CN1CCN(C(CNC(=O)C(=O)Nc2ccc(Cl)cc2)c2ccc3c(c2)OCO3)CC1` (stereo not drawn) here?
Its RP-LC retention time is 716 s.

Which RP-LC retention time does the source give for `CCOC(=O)c1cnc2c(-c3ccc(Cl)cc3)c(CC)nn2c1N` here?
The RP-LC retention time was 1280 s.

For `COc1ccccc1CNS(=O)(=O)c1cc2c(s1)CCN(C(=O)C1CCC1)C2`, which RP-LC retention time is on record?
Its RP-LC retention time is 877 s.

Which RP-LC retention time does the source give for `O=C(COc1ccc(F)cc1)N1C[C@@H]2C[C@H]1C[C@@H]2NS(=O)(=O)c1ccccc1` here?
The RP-LC retention time was 793 s.

With `CNC(=O)[C@@H]1C[C@H](Oc2cccnc2)CN1C(=O)C1CCC1` as the molecule, how does the RP-LC retention time read?
Its RP-LC retention time is 540 s.

Which RP-LC retention time does the source give for `O=C(NCCCn1cccn1)C1CCN(c2nnc3ccc(Cl)cn23)CC1` here?
Its RP-LC retention time is 618 s.

For `O=C(NCc1cccc(F)c1)C1CCN(c2cnc3nccnc3c2)CC1`, which RP-LC retention time is on record?
The RP-LC retention time was 680 s.

With `CCOC(=O)c1ccc(N2C=C(C#N)S(=O)(=O)c3ccc(C)cc32)cc1` as the molecule, how does the RP-LC retention time read?
The RP-LC retention time was 978 s.

Which RP-LC retention time does the source give for `COc1ccc(N(Cc2nnc3n2CCCCC3)C(=O)Nc2ccccc2)cc1OC` here?
The RP-LC retention time was 692 s.

Which RP-LC retention time does the source give for `O=C(Nc1nc(-c2nc3ccccc3s2)cs1)c1coc2ccccc2c1=O` here?
Its RP-LC retention time is 1160 s.

For `CCc1nn(C)c(=O)c2cc(S(=O)(=O)NCc3ccc(F)c(Cl)c3)cn12`, which RP-LC retention time is on record?
Its RP-LC retention time is 933 s.

With `CSc1cccc(NC(=O)N2CCN(c3cnn4c(C5CC5)nnc4c3)CC2)c1` as the molecule, how does the RP-LC retention time read?
The RP-LC retention time was 694 s.

Which RP-LC retention time does the source give for `CCN1C(=O)CCc2cc(NS(=O)(=O)c3c(C)cccc3Cl)ccc21` here?
The RP-LC retention time was 846 s.

Which RP-LC retention time does the source give for `CCN1CCN(c2cc(C)c3cc(NC(=O)c4cc(-c5ccco5)nc5ccccc45)ccc3n2)CC1` here?
Its RP-LC retention time is 599 s.

For `CCN1CCN(CCNC(=O)CN2C(=O)C3CCCCN3c3ccc(C(=O)N4CCCC4)cc32)CC1` (stereo not drawn), which RP-LC retention time is on record?
The RP-LC retention time was 591 s.

For `CCc1ccc(NC(=O)N2C[C@@H](F)C[C@H]2C(=O)N2CCc3ccccc3C2)cc1`, which RP-LC retention time is on record?
The RP-LC retention time was 887 s.

With `O=C(Cc1ccccc1Br)NC1CCN(c2cc(-c3ccccc3)[nH]n2)C1` (stereo not drawn) as the molecule, how does the RP-LC retention time read?
The RP-LC retention time was 665 s.

Which RP-LC retention time does the source give for `COc1cccc(-c2nc(Cn3c(=O)c4c(C)cc(C)nc4n(C)c3=O)c(C)o2)c1OC` here?
The RP-LC retention time was 1130 s.

For `C=CCNC(=O)c1cn(-c2cc(-c3nc(C(C)(C)C)no3)ccn2)cn1`, which RP-LC retention time is on record?
The RP-LC retention time was 879 s.

For `COc1ccc2[nH]cc(C(=O)O)c(=O)c2c1`, which RP-LC retention time is on record?
The RP-LC retention time was 605 s.

Which RP-LC retention time does the source give for `CCNS(=O)(=O)c1cccnc1Nc1cc(C)cc(C)c1` here?
The RP-LC retention time was 1060 s.

For `Cc1ccc(OCC(=O)Nc2cc3c(cc2N2CCOCC2)n(C)c(=O)c(=O)n3C)c(C)c1`, which RP-LC retention time is on record?
The RP-LC retention time was 787 s.

With `c1ccc(-c2nnc(-c3ccc(-n4ccnc4)nc3)o2)cc1` as the molecule, how does the RP-LC retention time read?
Its RP-LC retention time is 639 s.

Which RP-LC retention time does the source give for `Cc1ccc2nc(-c3ccccc3O)c(Nc3ccccc3C)n2c1` here?
The RP-LC retention time was 751 s.

With `CCC(C)CC(=O)N1CCCN(C2=NS(=O)(=O)C(c3ccccc3)=C2C)CC1` (stereo not drawn) as the molecule, how does the RP-LC retention time read?
The RP-LC retention time was 828 s.

Which RP-LC retention time does the source give for `NC(=O)N/N=C1\CC2CC1C1C=CCC21` (stereo not drawn) here?
The RP-LC retention time was 768 s.

With `CCOC(=O)c1noc2ncnc(Nc3ccccc3)c12` as the molecule, how does the RP-LC retention time read?
Its RP-LC retention time is 1000 s.

With `COc1cccc(CNC(=O)Nc2cc3c(cc2N2CCCC2)n(C)c(=O)n3C)c1` as the molecule, how does the RP-LC retention time read?
Its RP-LC retention time is 600 s.

With `O=C1c2ccccc2-c2onc3c(N4CCN(c5ccccn5)CC4)cc(N4CCCCC4)c1c23` as the molecule, how does the RP-LC retention time read?
Its RP-LC retention time is 600 s.

With `NC(=O)CCC(NC(=O)Cc1ccccc1)C(=O)O` (stereo not drawn) as the molecule, how does the RP-LC retention time read?
Its RP-LC retention time is 594 s.

With `CN1CCN(C(=O)C2CCN(c3nc4ccc(-c5ccsc5)nc4s3)CC2)CC1` as the molecule, how does the RP-LC retention time read?
The RP-LC retention time was 651 s.

For `CC(=O)Nc1cccc(C(C(F)(F)F)C(F)(F)F)c1`, which RP-LC retention time is on record?
Its RP-LC retention time is 778 s.

Which RP-LC retention time does the source give for `O=C(Nc1ccc2nc3n(c(=O)c2c1)CCCC3)c1cc2ccccc2[nH]1` here?
The RP-LC retention time was 720 s.

With `O=C(NCC1CCOCC1)Nc1ccccc1Cl` as the molecule, how does the RP-LC retention time read?
The RP-LC retention time was 741 s.

Reference: the METLIN SMRT retention time set (Domingo-Almenara et al. 2019)
